These results are taken from patent publication US20260021114A1, “COMPOSITION FOR LOWERING BLOOD LIPIDS AND CHOLESTEROL, PREPARATION METHOD THEREFOR, AND APPLICATION THEREOF” (Health and Happiness (H&H) Hong Kong Limited, priority 2022, published 2026).

Molecules are shown by their SMILES. Marks after values point to notes of the source that are not given here.

In one data set the test system is model zebrafish. Kind of data set: MTC determination in zebrafish hyperlipidemia model. The data set is classed as in vivo. On the procedure: 5 dpf melanin allele mutant translucent Albino strain zebrafish were randomly selected and put in beakers, with 30 fish per beaker (experimental group). The atorvastatin calcium and samples (see Table 2 for final concentration) were administered by dissolving in water respectively, and the normal control group and the model control group were set at the same time, and the volume of each beaker was 25 mL. Except for the normal control group, all other experimental groups were given high-fat feed in water (the high-fat feed was glucose with a final concentration of 3 wt % and egg yolk powder with a final concentration of 1.5 mg/mL) to establish a zebrafish hyperlipidemia model. The samples were co-processed with high-fat feed for 15 hours (co-processed for 7.5 hours per day and kept in fish farming water at 28° C. for the rest of the day). During sample processing, the number of dead zebrafish in each experimental group was counted every day and removed in time. After treatment at 28° C. for 48 hours, the minimum toxic concentration (MTC) of atorvastatin calcium and samples to model zebrafish was determined.

Data set [1] relates to zebrafish hyperlipidemia model. Kind of data set: Efficacy evaluation of lowering triglyceride (Oil Red O staining of tail blood vessels). The data set is classed as in vivo. The method, then:
5 dpf melanin allele mutant translucent Albino strain zebrafish were randomly selected and put in beakers, with 30 fish per beaker. The atorvastatin calcium and samples (see Table 3 for final concentration) were administered by dissolving in water respectively, and the normal control group and the model control group were set at the same time, and the volume of each beaker was 25 mL. Except for the normal control group, all other experimental groups were given high-fat feed in water (the high-fat feed was glucose with a final concentration of 3wt % and egg yolk powder with a final concentration of 1.5 mg/mL) to establish a zebrafish hyperlipidemia model. The samples were co-processed with high-fat feed for 15 hours (co-processed for 7.5 hours per day and kept in fish farming water at 28° C. for the rest of the day). After treatment at 28° C. for 48 hours, Oil Red O was given for whole-body fat staining. After the staining, 10 zebrafish from each experimental group were randomly selected and photographed under a dissection microscope. […] The staining intensity of the zebrafish tail blood vessels was analyzed, and the efficacy of atorvastatin calcium and sample in lowering triglycerides was evaluated based on the statistical analysis results of this indicator. Statistical processing results are expressed as mean +SE. […]

In data set [2] the test system is zebrafish hyperlipidemia model. Kind of data set: Efficacy evaluation of lowering cholesterol (cholesterol fluorescent probe, tail blood vessels). The data set is classed as in vivo. The method, then:
5 dpf melanin allele mutant translucent Albino strain zebrafish were randomly selected and put in beakers, with 30 fish per beaker. The atorvastatin calcium and samples (see Table 4 for final concentration) were administered by dissolving in water respectively, and the normal control group and the model control group were set at the same time, and the volume of each beaker was 25 mL. Except for the normal control group, all other experimental groups were given high-fat feed in water (the high-fat feed was glucose with a final concentration of 3wt % and egg yolk powder with a final concentration of 1.5 mg/mL) to establish a zebrafish hyperlipidemia model. The samples were co-processed with high-fat feed for 15 hours (co-processed for 7.5 hours per day and kept in fish farming water at 28° C. for the rest of the day). After treatment at 28° C. for 32 hours, cholesterol fluorescent probe (final concentration 1 mg/mL) was administered. After continuing the treatment for 16 hours, 10 zebrafish from each experimental group were randomly selected and photographed under a fluorescence microscope. […] The cholesterol fluorescence intensity of the zebrafish tail blood vessels was analyzed, and the efficacy lowering cholesterol of the samples was evaluated by the statistical analysis results of this index. Statistical processing results are expressed as mean±SE. […]

The next data set deals with hmgcra gene. Kind of data set: Effect on the hmgcra gene expression levels (q-PCR). The data set is classed as in vivo, zebrafish. The method, then: 5 dpf melanin allele mutant translucent Albino strain zebrafish were randomly selected and put in beakers, with 30 fish per beaker. The atorvastatin calcium and samples (see Table 7 for final concentration) were administered by dissolving in water respectively, and the normal control group and the model control group were set at the same time, and the volume of each beaker was 25 mL. Except for the normal control group, all other experimental groups were given high-fat feed in water (the high-fat feed was glucose with a final concentration of 3 wt % and egg yolk powder with a final concentration of 1.5 mg/mL) to establish a zebrafish hyperlipidemia model. The samples were co-processed with high-fat feed for 15 hours (co-processed for 7.5 hours per day). After treatment at 28° C. for 48 hours, total RNA of 2.00 μg zebrafish sample was taken, and 20.0 μL cDNA was synthesized according to the instructions of the cDNA first chain synthesis kit. The expression of β-actin and hmgcra genes was detected by q-PCR (see Table 6 for the sequence of primers). The RNA phase of hmgcra gene was calculated using […] as the internal reference of gene expression. Statistical processing results are expressed as mean +SE. Statistical analysis was performed with SPSS26.0 software, p<0.05 indicated a statistically significant difference.

As for `CC(C)c1c(C(=O)Nc2ccccc2)c(-c2ccccc2)c(-c2ccc(F)cc2)n1CC[C@@H](O)C[C@@H](O)CC(=O)[O-].CC(C)c1c(C(=O)Nc2ccccc2)c(-c2ccccc2)c(-c2ccc(F)cc2)n1CC[C@@H](O)C[C@@H](O)CC(=O)[O-].[Ca+2]` [Atorvastatin calcium], in the data set on model zebrafish (11.6 μg/mL, n = 30, 48 hours), the “Death rates (%)” value was 0% and the “Number of deaths (fish)” value is recorded as 0 fish. In the data set with model zebrafish (model zebrafish, high-fat feed, 28° C. for 48 hours), this molecule returned an MTC of 11.6 µg/mL. Besides, the “Triglyceride content (Unit in pixels, mean ± SE)” value in data set [1] (11.6 μg/mL, 48 hours, tail blood vessels staining intensity) is 11104 ± 588***^c pixels. Moreover, the “lowering of triglycerides compared with the model control group (in words)” value in data set [1] (P<0.05 vs model control group) is “significantly lower triglycerides”. In addition, the “Cholesterol content (Unit in pixels, mean ± SE)” value in data set [2] (11.6 μg/mL, 48 hours, tail blood vessels cholesterol fluorescence intensity) was 122765 ± 11371 pixels. Also, in data set [2] (P<0.05 vs model control group), the “lowering of cholesterol compared with the model control group (in words)” value is “significantly lower cholesterol”. Besides, in the data set with hmgcra gene (11.6 μg/mL, 48 hours, β-actin internal reference, model control = 1), the “Relative expression of hmgcra gene (mean ± SE)” value is given as 0.542 ± 0.003***^a. In the data set on hmgcra gene (P<0.05 vs model control group), the “reduction of hmgcra gene expression levels compared with the model control group (in words)” value is reported as “significantly reduce the hmgcra gene expression levels”.
